Settings: Liquid, Vibrating tube method

CCCC(=O)OCC(COC(=O)CCC)(COC(=O)CCC)COC(=O)CCC [pentaerythritol tetrabutyrate]
Settings	mass density [kg/m3]
343.14 K, 27001 kPa	1027.8
343.14 K, 27378 kPa	1028.1
343.14 K, 27722 kPa	1028.3
343.14 K, 28167 kPa	1028.7
343.14 K, 28200 kPa	1028.7
343.14 K, 28241 kPa	1028.7
343.14 K, 29595 kPa	1029.4
343.14 K, 29634 kPa	1029.5
343.14 K, 29666 kPa	1029.7
343.14 K, 29705 kPa	1029.5
343.14 K, 30226 kPa	1030
343.14 K, 30268 kPa	1029.9
343.14 K, 30303 kPa	1029.9
343.14 K, 30331 kPa	1030
343.14 K, 30366 kPa	1030.1
343.14 K, 30394 kPa	1030.1
343.14 K, 30429 kPa	1029.9
343.14 K, 30464 kPa	1030.1
343.14 K, 30785 kPa	1030.4
343.14 K, 30814 kPa	1030.4
343.14 K, 30849 kPa	1030.4
343.14 K, 30886 kPa	1030.3
343.14 K, 30916 kPa	1030.4
343.14 K, 32186 kPa	1031.3
343.14 K, 32224 kPa	1031.2
343.14 K, 32886 kPa	1031.6
343.14 K, 32998 kPa	1031.7
343.14 K, 33543 kPa	1032
343.14 K, 33577 kPa	1032.2
343.14 K, 33620 kPa	1032.2
343.14 K, 33664 kPa	1032.2
343.14 K, 33699 kPa	1032.2
343.14 K, 33741 kPa	1032.2
343.14 K, 33784 kPa	1032.2
343.14 K, 33820 kPa	1032.2
343.14 K, 33863 kPa	1032.3
343.14 K, 33907 kPa	1032.4
343.15 K, 454.1 kPa	1008.4
343.15 K, 473 kPa	1008.4
343.15 K, 494.2 kPa	1008.5
343.15 K, 517.1 kPa	1008.3
343.15 K, 5946.5 kPa	1012.7
343.15 K, 6013.6 kPa	1012.8
343.15 K, 6051.1 kPa	1012.8
343.15 K, 6081.9 kPa	1012.8
343.15 K, 7040 kPa	1013.6
343.15 K, 7078.5 kPa	1013.6
343.15 K, 7108.1 kPa	1013.7
343.15 K, 7140.9 kPa	1013.7
343.15 K, 8048.2 kPa	1014.3
343.15 K, 8412.3 kPa	1014.7
343.15 K, 8447.3 kPa	1014.8
343.15 K, 8482.2 kPa	1014.7
343.15 K, 8511.5 kPa	1014.7
343.15 K, 8547 kPa	1014.6
343.15 K, 8583.2 kPa	1014.8
343.15 K, 8618.9 kPa	1014.8
343.15 K, 8655.1 kPa	1014.9
343.15 K, 8686 kPa	1014.8
343.15 K, 8982.4 kPa	1015
343.15 K, 9021.7 kPa	1015.1
343.15 K, 9062.3 kPa	1015.2
343.15 K, 9096.7 kPa	1015.2
343.15 K, 9137.8 kPa	1015.1
343.15 K, 9179.2 kPa	1015.3
343.15 K, 9602.2 kPa	1015.6
343.15 K, 9638.9 kPa	1015.4
343.15 K, 9676.1 kPa	1015.7
343.15 K, 9713.7 kPa	1015.6
343.15 K, 9822.7 kPa	1015.8
343.15 K, 9861.5 kPa	1015.8
343.15 K, 9900.4 kPa	1015.9
343.15 K, 9939.7 kPa	1015.8
343.15 K, 9973.1 kPa	1015.9
343.15 K, 10013 kPa	1016
343.15 K, 10053 kPa	1015.8
343.15 K, 10095 kPa	1015.9
343.15 K, 10129 kPa	1015.9
343.15 K, 10171 kPa	1016
343.15 K, 10545 kPa	1016.2
343.15 K, 10590 kPa	1016.2
343.15 K, 10635 kPa	1016.3
343.15 K, 10674 kPa	1016.5
343.15 K, 10720 kPa	1016.3
343.15 K, 10767 kPa	1016.4
343.15 K, 10943 kPa	1016.5
343.15 K, 10980 kPa	1016.7
343.15 K, 11011 kPa	1016.6
343.15 K, 11049 kPa	1016.6
343.15 K, 11087 kPa	1016.7
343.15 K, 11125 kPa	1016.7
343.15 K, 11163 kPa	1016.7
343.15 K, 11196 kPa	1016.8
343.15 K, 11235 kPa	1016.8
343.15 K, 11314 kPa	1016.8
343.15 K, 11354 kPa	1016.8
343.15 K, 11388 kPa	1017
343.15 K, 11428 kPa	1016.8
343.15 K, 11468 kPa	1017
343.15 K, 11510 kPa	1017
343.15 K, 11544 kPa	1017
343.15 K, 11586 kPa	1017
343.15 K, 11628 kPa	1017.2
343.15 K, 11670 kPa	1017.1
343.15 K, 11714 kPa	1017.1
343.15 K, 11749 kPa	1017.1
343.15 K, 11792 kPa	1017.1
343.15 K, 11837 kPa	1017.3
343.15 K, 12365 kPa	1017.5
343.15 K, 12414 kPa	1017.6
343.15 K, 12458 kPa	1017.7
343.15 K, 12498 kPa	1017.7
343.15 K, 12547 kPa	1017.7
343.15 K, 12597 kPa	1017.8
343.15 K, 12647 kPa	1017.8
343.15 K, 12689 kPa	1017.9
343.15 K, 12739 kPa	1017.8
343.15 K, 12791 kPa	1018
343.15 K, 12843 kPa	1017.9
343.15 K, 12895 kPa	1018
343.15 K, 12939 kPa	1018
343.15 K, 12991 kPa	1018.1
343.15 K, 13044 kPa	1018
343.15 K, 13098 kPa	1018.2
343.15 K, 13151 kPa	1018.2
343.15 K, 13198 kPa	1018.2
343.15 K, 13252 kPa	1018.1
343.15 K, 13307 kPa	1018.2
343.15 K, 13364 kPa	1018.2
343.15 K, 13420 kPa	1018.4
343.15 K, 13468 kPa	1018.5
343.15 K, 13526 kPa	1018.4
343.15 K, 13584 kPa	1018.5
343.15 K, 13644 kPa	1018.5
343.15 K, 13698 kPa	1018.7
343.15 K, 13772 kPa	1018.6
343.15 K, 13822 kPa	1018.7
343.15 K, 13864 kPa	1018.6
343.15 K, 13901 kPa	1018.7
343.15 K, 13931 kPa	1018.8
343.15 K, 13968 kPa	1018.7
343.15 K, 14005 kPa	1018.7
343.15 K, 14043 kPa	1018.9
343.15 K, 14079 kPa	1018.8
343.15 K, 14110 kPa	1018.9
343.15 K, 14147 kPa	1018.9

From the NIST ThermoML archive (doi:10.1021/je060271a)
